Measurements: patent US20170191032A1, “IDENTIFICATION AND ISOLATION OF NEURAL STEM CELLS AND NEUROSPHERE INITIATING CELLS” (The Board of Regents of the University of Texas System, priority 2014, published 2017)

Experiments:
[1] = test system: adult SVZ cells; experiment: Neurosphere formation (clonogenesis) of adult SVZ cells with culture additives; assay type: cell-based, mouse
Source text: Rock inhibitor (Y-27632) and IGF1 increase clonogenesis after sorting. The process of being sorted has a negative effect on neurosphere formation from adult SVZ cells: at the beginning of their experiments the inventors observed a 3-fold loss of activity in sorted live SVZ cells compared to crude unsorted cells. […] The inventors wondered how to sort gently to overcome the fragility of adult SVZ cells.
(§1) The mechanisms underlying these effects are unclear but may involve promotion of cell survival after sorting or repression of BMP signaling (Hsieh et al., 2004). When using both these culture additives, there was little difference between sorted live SVZ cells and an equal number of cells added to culture by pipette in terms of the numbers of neurospheres they made.
After adding 10% CEE to the culture medium, sorted cell-derived primary neurospheres were indistinguishable in size and number from neurospheres cultured from cells pipetted into culture.
(§2) The cell suspension was then filtered through a 45-micron mesh, counted on a hemocytometer, and added to culture or processed for flow cytometry. […] For adherent colony formation, Tg(Ubc-GFP) SVZ cells were co-cultured with 80-90% confluent nontransgenic neonatal SVZ-derived astrocytes isolated and passaged twice prior to the experiment. GFP fluorescence was used to assess colony formation after 12-20 days in culture.

[2] = test system: neonatal SVZ cells; experiment: Neurosphere formation of neonatal SVZ cells with culture additive; assay type: cell-based, mouse; details: 10 μM
Source text: as §1

[3] = test system: GEPCOT cells; details: 3.0 mM EDTA in staining medium (slight excess over 2.7 mM divalent cations)
Procedure: In the inventors' experiments, the staining medium the inventors employed contained 3.0 mM EDTA, enough to neutralize 2.7 mM of divalent cations in the staining medium (with a small surplus). […] The inventors pre-diluted 0.5M EDTA (made from Na2H2EDTA, pH 8.0) to 77.7 mM (309 mOsm) before adding it to the staining medium.
SVZ cell preparation. SVZs from adult (8-60 week old) mice were dissected as described (Mirzadeh et al., 2010). SVZs were minced and digested with 300 μl of trypsin solution (Ca and Mg-free HBSS, 10 mM HEPES, 0.5 mM EDTA, 0.25 mg/mL trypsin (EMD Millipore), 10 μg/mL DNase I (Roche), pH 7.6) at 37° C. for 20 minutes. Digestion was quenched with three volumes of staining medium (440 ml Leibovitz L-15 medium, 50 ml water, 5 ml 1M HEPES pH 7.3-7.4, 5 ml 100× Pen-Strep, 20 ml 77.7 mM EDTA pH 8.0 [prepared from Na2H2EDTA], 1 g bovine serum albumin [Sigma A7030]) containing 100 μg/ml trypsin inhibitor (Sigma T6522) and 10 μg/ml DNase I (Roche).

[4] = test system: SVZ cells; experiment: TMZ regeneration assay: total and dividing (BrdU) SVZ cells; assay type: in vivo, mouse
Source text: (§3) All data represent mean ±s.d.

[5] = test system: NICs; experiment: TMZ regeneration assay: neurosphere-initiating cells (NICs); assay type: in vivo, mouse
Source text: as §3, §2

[6] = Body mass after TMZ treatment; assay type: in vivo, mouse; details: three days after TMZ, 100 mg/kg/day i.p. for 3 consecutive days
[7] = test system: GEPCOT cells; experiment: TMZ regeneration assay: GEPCOT cells per SVZ by flow cytometry; details: for number of unlabeled GEPCOTs per SVZ: Ascl1CreERT2 reporter mice, tamoxifen then TMZ
Procedure: TMZ regeneration assay. TMZ (temozolomide; Sigma T2577) was dissolved in 25% DMSO/75% 0.9% saline solution at 10 mg/ml by heating briefly to 90-100° C., then shaking and rapidly cooling. Mice were injected at 100 mg/kg/day for three consecutive days then allowed to recover for 3-90 days before analysis. Mice with enlarged spleen or thymus (sometimes present at 90 days after TMZ treatment) were excluded from analysis.
To stain SVZ cells with the combination of markers used to isolate GEPCOT or pre-GEPCOT cells, dissociated SVZ cells were centrifuged (220 g, 4 min, 4° C.) and resuspended in 100 μl staining medium per brain. Then the following antibodies were added: BV421 anti-Ter119 (Biolegend 116233, 1/100), BV421 anti-CD45 (Biolegend 103133, 1/100), APC-eFluor 780 anti-CD24 (eBioscience 47-0242-82, 1/200), 5A5 ascites (anti-PSA-NCAM; Developmental Studies Hybridoma Bank, 1/100), O4 ascites (1/200), anti-PlexinB2 (eBioscience 14-5665-82, 1/100), biotinylated anti-EGFR (R&D Systems BAF1280, 1/200), anti-Glast (Miltenyi Biotec 130-095-822, 1/10), and DAPI (50 μg/ml, 1/100). After adding antibodies, the cells were incubated on ice for 45 minutes, then washed with 2.5 ml fresh staining medium and pelleted (220 g for 4 minutes at 4° C.) and resuspended in secondary antibodies. Typically, the inventors used the following combination: APC anti-mouse IgG2a (Jackson Immunoresearch 115-135-206,1/200), PE anti-hamster IgG (Jackson Immunoresearch 127-115-160, 1/200), PE-Cy7 anti-mouse IgM (eBioscience 25-5790-82, 1/100), BV605-Streptavidin (BD Biosciences 563260, 1/200). However, when analyzing mice expressing tdTomato, the inventors used the following alternative secondary antibodies: PerCP-eFluor 710 anti-mouse IgG (eBioscience 46-4010-82, 1/100), APC anti-hamster IgG (Jackson Immunoresearch 127-135-160, 1/200), PE-Cy7 anti-mouse IgM (eBioscience 25-5790-82, 1/100), and BV605-Streptavidin (BD Biosciences 563260, 1/200). Cells were stained with secondary antibodies on ice for 45 minutes, then washed and pelleted as above, and analyzed on the FACSAria in a volume of 200 μl per brain.

[8] = three days after TMZ (100 mg/kg/day i.p., 3 days)

Molecule: Y-27632 hydrochloride
- increase in neurosphere formation ([1]; 10 μM in culture medium, adult cells after sorting): approximately two-fold
- effect on neurosphere formation ([1]; 10 μM, adult SVZ cells pipetted into the culture medium): did not have any effect
- effect on neurosphere formation ([2]; crude neonatal SVZ cells): did not have any effect
- effect on neurosphere formation ([2]; sorted neonatal SVZ cells): did not have any effect

Molecule: IGF1: IGF-1 growth factor (R&D Systems 291-G1) added to culture medium
- clonogenesis after sorting ([1]; 20 ng/ml in culture medium, in addition to Y-27632): further improved clonogenesis after sorting

Molecule: O=C(O)CN(CCN(CC(=O)O)CC(=O)O)CC(=O)O [EDTA]
- effect on the yield of GEPCOT cells [3]: 2-3 fold

Molecule: Cn1nnc2c(C(N)=O)ncn2c1=O [TMZ, temozolomide]
- number of dividing SVZ cells, recovery as % of normal ([4]; 90 days after TMZ treatment): 50 % of normal
- reduction in the number of dividing SVZ cells, based on BrdU incorporation [4, 8]: 80%
- reduction in the total number of cells per SVZ [4, 8]: 23%
- NICs recovered, % of normal levels ([5]; 16 days after TMZ treatment): 20 % of normal
- NICs recovered, % of normal ([5]; 90 days after TMZ): 55 % of normal
- NICs remaining relative to saline-treated control mice ([5]; three days after TMZ): 0.7%
- loss of body mass as compared to before TMZ treatment [6]: less than 3%
- GEPCOTs recovered, % of normal levels ([7]; 16 days after TMZ treatment): 32 % of normal
- GEPCOTs recovered, % of normal levels ([7]; 90 days after TMZ treatment): 55 % of normal
- number of unlabeled GEPCOTs per SVZ ([7]; 3 days after TMZ): 120±50
- number of unlabeled GEPCOTs per SVZ ([7]; 35 days after TMZ): 640±210
- GEPCOTs remaining relative to saline-treated control mice ([7]; three days after TMZ treatment): 10%
